Laboratory results as given in patent US20230149362A1, “NEW CAPSULE COMPOSITION FOR PERORAL ADMINISTRATION” (Vicore Pharma AB, priority 2020, published 2023).
Structures can show the parent of a compound that is named as a salt. Where two headings read alike, the source gives them in different places.

Assay: Solubility of C21 sodium salt in aqueous vehicles
Format: physicochemical
Conditions: for solubility: thermodynamic from solid, saturation not reached, read-out: Concentration (solubility)
Method: In this experiment, C21 sodium salt (Syntagon AB) was added to the vehicle, small amounts at a time. About 20-30 mg of the sodium salt was easily dissolved in all the vehicles tested. Salt was continuously added to the same sample in an attempt to obtain a saturated solution. In this way, higher amounts, such as 40-60 mg/mL could be dissolved. The solubility is probably even higher than this in the vehicles tested, but this was not established in view of the limited amount of drug compound available.

solubility (aqueous buffer, vehicle PBS pH 7.4, measured pH 9.4): > 40 mg/mL | solubility compared with free C21 (aqueous vehicles): considerably higher than free C21 | solubility (saline or isotonic, vehicle 0.9% NaCl, pH 9.3): > 40 mg/mL | amount that could be dissolved (vehicles tested (H2O, 0.9% NaCl, PBS), salt added continuously): 40 to 60 mg/mL | solubility (water, vehicle H2O, pH 9.8): > 65 mg/mL
SMILES: CCCCOC(=O)NS(=O)(=O)c1sc(CC(C)C)cc1-c1ccc(Cn2ccnc2)cc1 [C21 sodium salt, N-butyloxycarbonyl-3-(4-imidazol-1-ylmethylphenyl)-5-iso-butylthiophene-2-sulfonamide]
